Measurements as given in patent US12358863B2, “Nitrogen-containing derivative of substituted phenol hydroxy acid ester, and preparation and use thereof” (priority 2019, dated 2025).
Where two headings read alike, the source gives them in different places.

Assays:
[1] = Decomposition of prodrugs in mouse plasma in vitro (HPLC of released propofol or other substituted phenol); format: in vitro ADME; details: 37° C.
Method: The prodrug to be tested was prepared into a saline solution of 10 mg/mL. 10 μL of drug-containing solution was added to 990 μL of mouse plasma, vortexed for 30 s, and then incubated at 37° C. At 30 s, 1 min, 5 min, 10 min, 30 min, 60 min and 120 min, 50 μL of drug-containing plasma was collected, to which was immediately added 150 μL of acetonitrile to terminate the enzymatic reaction, and then centrifuged at 20000 rpm and 4° C. for 10 min. 50 μL of supernatant was taken out and injected into HPLC, to determine the concentration of propofol by internal standard method. The decomposition rate of the prodrug was calculated from the concentrations of propofol or other substituted phenols. Chromatographic conditions: Agilent Zorbax XdB C18 column (150 mm)×4.6 mm, 5 μm); column temperature 30° C.; the mobile phase, water:acetonitrile (40:60, v/v); fluorescence wavelength: excitation wavelength (Ex) at 276 nm, emission wavelength (EM) at 310 nm; flow rate: 1.2 mL/min; retention time: internal standard (thymol) 3.9 min, propofol 7.4 min. Linear range of propofol or other substituted phenols: 50-35000 ng/mL. Instruments: Waters 2695 high performance liquid chromatograph, Waters 2475 fluorescence detector.

Kunming mice [2] = format: in vivo, mouse
Method: For each drug, 10 male Kunming mice weighing 20-35 g were included, and the dose of each drug was 2×ED50 in mice. After the compound of the present invention and fospropofol were respectively dissolved in saline, the resultant solutions were injected via the mouse tail vein. For propofol, a glucose dilution (5 mg/mL) of a commercially available emulsion of diprivan was selected and injected via the mouse tail vein; while, for another substituted phenol molecule (CAS:1637741-58-2), its 30% fat emulsion was prepared as a medicated emulsion. The concentration of the injectable solution of the compound according to the present invention was 10-15 mg/mL, and the concentration of the injectable solution of fospropofol was 55 mg/mL, while the concentration of the injectable solution of another substituted phenol molecule (CAS:1637741-58-2) was 1 mg/mL. After injection of tested drug, the occurrence time T1 of righting reflex after its disappearance, the duration T2 for the disappearance of righting reflex (i.e. anesthesia time) and the time T3 required for the animal to recover completely after waking up were recorded. Complete recovery refers to the recovery of autonomous activities of animals to the level before administration. In the experiment, animals were not given respiratory support such as oxygen inhalation or intubation.

Kunming mice [3] = experiment: Determination of therapeutic index (ED50 and LD50, up-and-down method); format: in vivo, mouse; details: half male and half female
Method: Determination of therapeutic index (TI) of prodrug molecules: by referring the method in literature (Dixon, W. Staircase bioassay: the up-and-down method. Neurosci. Biobehav. Rev. 1991, 15, 47-50), the half-effective dose (ED50) and half-lethal dose (LD50) of the molecule to be tested were determined in Kunming mice (weighing 25-30 g, half male and half female). The therapeutic index for each molecule was calculated according to the equation: TI=LD50/ED50.

[4] = Table 3, dose 2×ED50, tail vein injection, male Kunming mice

SMILES | Decomposition rates of prodrugs ([1]; 30 s) [%] | Decomposition rates of prodrugs ([1]; 1 min) [%] | Decomposition rates of prodrugs ([1]; 5 min) [%] | Decomposition rates of prodrugs ([1]; 10 min) [%] | Decomposition rates of prodrugs ([1]; 30 min) [%] | Decomposition rates of prodrugs ([1]; 60 min) [%] | Decomposition rates of prodrugs ([1]; 120 min) [%] | T1: the onset time after injection (Kunming mice [2]; [4]) | T2: the duration of disappearance of righting reflex (Kunming mice [2]; [4]) [min] | T3: the time required for righting reflex to recover to autonomous activity (Kunming mice [2]; [4]) [min] | TI (therapeutic index) (Kunming mice [3]) | T1: the onset time after injection (Kunming mice [2]; mouse, in vivo) | T2: the duration of disappearance of righting reflex (Kunming mice [2]; mouse, in vivo) [min]
CC(C)c1cccc(C(C)C)c1OC(=O)COC(=O)CN1CCCC1.Cl [Compound 42] | 91 | 100 | 100 | 100 | 100 | 100 | 100 | Immediate | 6 to 12 | 1 to 2 | 3.7 |  | 
CC(C)c1cccc(C(C)C)c1OC(=O)COC(=O)CN1CCOCC1 [Compound 23] | 89 | 100 | 100 | 100 | 100 | 100 | 100 | Immediate | 5 to 13 | 1 to 2 | 4.4 |  | 
CC(C)c1cccc(C(C)C)c1OC(=O)COC(=O)CN1CCOCC1 [Compound 27] | 60 | 65 | 79 | 86 | 100 | 100 | 100 | Immediate | 4 to 12 | 1 to 2 | 4.5 |  | 
CC(C)c1cccc(C(C)C)c1OC(=O)COC(=O)CN1CCC1.Cl [Compound 37] | 75 | 92 | 100 | 100 | 100 | 100 | 100 | Immediate | 4 to 10 | 1 to 2 | 3.9 |  | 
CC(C)c1cccc(C(C)C)c1OC(=O)COC(=O)CN1CCCCC1 [Compound 29] | 88 | 100 | 100 | 100 | 100 | 100 | 100 |  |  | 1 to 2 | 4.1 | Immediate | 5 to 14
CC(C)c1cccc(C(C)C)c1OC(=O)COC(=O)CN1CCOCC1 [Compound 22] | 58 | 66 | 80 | 89 | 100 | 100 | 100 |  |  | 1 to 2 | 4.7 | Immediate | 4.5 to 10.5
CC(C)C[C@@H](N)C(=O)OCC(=O)Oc1c(C(C)C)cccc1C(C)C.Cl [Compound 48] | 92 | 100 | 100 | 100 | 100 | 100 | 100 | Immediate | 6 to 14 | 1 to 2 | 4.1 |  | 
